According to patent US8440830B2, “Tetrahydro-fused pyridines as histone deacetylase inhibitors” (4SC AG, priority 2007, dated 2013):

Legend:
A549 NSCLC cells [1] = experiment: Cell cycle analysis by flow cytometry; type: cell-based, human; conditions: A549, 24 h treatment
Experimental: A549 NSCLC cells (ATTC CCL-185) are cultivated in DMEM with high glucose (supplemented with 10% FBS) at 5% CO2 and 37° C. in a humidified atmosphere under standard cell culture conditions. 24 h before compound treatment, cells are seeded at 5×10^4 cells/ml (=5×10^5 cells/10 cm cell culture dish) to allow logarithmic proliferation during the experiment. After 24 h, cells were treated with test compound or 0.5 vol % DMSO as a control. After 24 h and 48 h treatment, the culture medium is collected and detached, floating cells are collected by short centrifugation (5 min at 1200 rpm). Attached cells are washed once with 5 ml PBS, detached by treatment with 3 ml trypsin/EDTA solution (short incubation for 3-5 min) and—together with detached, floating cells—transferred into 15 ml Falcon tubes. The cell culture dish is washed with 10 ml DMEM to collect all remaining cells. After centrifugation for 5 min at 1200 rpm at room temperature, the supernatant is discarded and the cell pellet washed twice with 10 ml PBS. The supernatant is discarded, the cells resuspended in 4 ml ice-cold fixation solution (70 vol % ethanol, 30 vol % H2O; stored at −20° C.) and stored at −20° C. overnight. Next, 10 ml PBS (4° C.) is added to the cells, before centrifugation for 5 min at 1200 rpm (4° C.). The supernatant is discarded, the cell pellet washed once with 10 ml PBS (4° C.) and the cell pellet finally resuspended in about 1 ml staining solution (10 μg/ml RNAse A, 10 μg/ml propidiumiodide in PBS, final volume dependent on cell number). After incubation for 30 min at room temperature in the dark, cells are stored on ice and analyzed using the Becton Dickinson FACS Canto device. Analysis is done at an excitation of λ=488 nm with emission set as λ=600 nm.
Data analysis: Cells are analyzed according to size, granularity and propidiumiodide intensity. Size and granularity of cells are determined by measurement of forward scatter (FSC) and side scatter (SSC) of the λ=488 nm excitation light, respectively. To discriminate cells with 4N DNA content from cell doublets (two attached cells with 2N DNA content each), the ratio between the area under the propidiumiodide peak (PE-A) and the height of the propidiumiodide peak (PE-H) for each cell is determined. Cell doublets need more time to pass through the laser beam, which causes a broadening of the propidiumiodide peak and an increase of the ratio PE-A/PE-H. Using this analysis, cells in 4N and cell doublets appear as distinct clouds in a scatter plot and are excluded from the analysis. Thus, the area under the propidiumiodide peak at λ=600 nm (PE-A) is a measure for the DNA content of the cells. PE-A is blotted against the measured cell number in a histogram in order to determine the percentage of analyzed cells in an individual stage of the cell cycle.

A549 NSCLC cells [2] = experiment: Cellular cytotoxicity assay (Alamar Blue), A549; type: cell-based; conditions: Homo sapiens, 72 h, upper end given as ≧100, read-out: IC50 (μM), cytotoxicity towards A549 NSCLC cells
In short: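 Cells were dosed 24 h after seeding with semi-log compound dilutions in quadruplicate, then incubated 72 h at 37 °C, 5% CO2. Viability read by Resazurin reduction (4 h, fluorescence 544/590 nm) relative to untreated 0.5% DMSO controls; IC50 by non-linear regression.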

How did the “concentration inducing arrest in G1, depletion of cells in the S-phase and reduction of cells in the G2/M-phase” value (A549 NSCLC cells [1]) turn out when `Nc1ccccc1NC(=O)c1nc2c(s1)CN(C(=O)Nc1ccc(-c3ccccc3)cc1)CC2` [Example 1, N^2-(2-aminophenyl)-N5-biphenyl-4-yl-6,7-dihydro[1,3]thiazolo[5,4-c]pyridine-2,5(4H)-dicarboxamide] was run?
The value was “around 3 μM”.

And the IC50 (A549 NSCLC cells [2])?
Its IC50 is no less than 0.2 µM.

Which results are given for `CN(C)c1ccc(NC(=O)N2CCc3nc(C(=O)Nc4ccccc4N)sc3C2)cc1` [Example 2, N^2-(2-aminophenyl)-N5-[4-(dimethylamino)phenyl]-6,7-dihydro[1,3]thiazolo[5,4-c]pyridine-2,5(4H)-dicarboxamide]?
concentration inducing arrest in G1, depletion of cells in the S-phase and reduction of cells in the G2/M-phase (A549 NSCLC cells [1]): around 3 μM; IC50 (A549 NSCLC cells [2]): ≥ 0.2 µM

With `Nc1ccccc1NC(=O)c1nc2c(s1)CN(C(=O)Nc1cnc3ccccc3c1)CC2` [Example 12, N^2-(2-aminophenyl)-N5-quinolin-3-yl-6,7-dihydro[1,3]thiazolo[5,4-c]pyridine-2,5(4H)-dicarboxamide] as the molecule, how does the “concentration inducing arrest in G1, depletion of cells in the S-phase and reduction of cells in the G2/M-phase” value (A549 NSCLC cells [1]) read?
The value was “around 3 μM”.

And the IC50 (A549 NSCLC cells [2])?
The IC50 was no less than 0.2 µM.

Which “concentration inducing arrest in G1, depletion of cells in the S-phase and reduction of cells in the G2/M-phase” value (A549 NSCLC cells [1]) does the source give for `COc1ccc(NC(=O)N2CCc3nc(C(=O)Nc4ccccc4N)sc3C2)cc1` [Example 3, N^2-(2-aminophenyl)-N5-(4-methoxyphenyl)-6,7-dihydro[1,3]thiazolo[5,4-c]pyridine-2,5(4H)-dicarboxamide] here?
The value was “around 3 μM”.

And the IC50 (A549 NSCLC cells [2])?
The IC50 was no less than 0.2 µM.
